Measured values as given in US6245817A, “NPY5 receptor antagonists and methods for using same” (Bayer Corporation, priority 1999, dated 2001).

Key:
Human NPY5 Receptor = target: T1, Human NPY5 Receptor (Homo sapiens, UniProt Q15761); assay: Human NPY5 Receptor Binding Assay; settings: [125I]PYY; read-out: hNPY5 IC50
T1 sequence (Q15761 1-445): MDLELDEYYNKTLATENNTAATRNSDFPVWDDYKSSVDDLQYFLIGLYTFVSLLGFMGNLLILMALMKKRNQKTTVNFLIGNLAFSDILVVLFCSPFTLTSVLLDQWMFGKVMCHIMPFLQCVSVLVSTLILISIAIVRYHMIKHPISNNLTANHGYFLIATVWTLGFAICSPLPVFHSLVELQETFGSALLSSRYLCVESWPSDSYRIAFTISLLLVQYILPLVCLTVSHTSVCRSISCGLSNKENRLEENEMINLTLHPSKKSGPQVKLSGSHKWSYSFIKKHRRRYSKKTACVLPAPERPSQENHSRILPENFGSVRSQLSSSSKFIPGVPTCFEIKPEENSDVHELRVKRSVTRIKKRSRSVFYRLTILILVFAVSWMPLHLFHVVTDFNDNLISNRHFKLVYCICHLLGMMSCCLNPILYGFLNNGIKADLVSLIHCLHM
Description: Human and Rat NPY5 Receptor Binding Assays
Binding assays are performed on GF/C Millipore 96-well plates pretreated with 0.02% polyethylenimine. The binding buffer is 25 mM Tris, 120 mM NaCl, 5 mM KCl, 1.2 mM KH2 PO4, 2.5 mM CaCl2, 1.2 mM MgSO4, 0.1% BSA and 0.5 mg/ml bacitracin, pH 7.4. Samples consist of membrane protein, 75-100 pM [125I]PYY (porcine, NEN-DuPont) and drug dilution. Nonspecific binding is defined by 1 μM PYY. After a 2 hour incubation at room temperature with constant mixing, the samples are aspirated on a vacuum manifold, and rinsed with ice-cold binding buffer. The amount of radioactivity in each well is quantitated with either gamma counting or liquid scintillation. IC50 values, which correspond to 50% inhibition of specific binding, are determined with non-linear regression analysis.

Human NPY2 receptor = target: T2, Human NPY2 receptor (Homo sapiens, UniProt P49146); assay: Human NPY2 Receptor Binding Assay; settings: [125I]PYY; read-out: hPPY2 IC50
T2 sequence (P49146 1-381): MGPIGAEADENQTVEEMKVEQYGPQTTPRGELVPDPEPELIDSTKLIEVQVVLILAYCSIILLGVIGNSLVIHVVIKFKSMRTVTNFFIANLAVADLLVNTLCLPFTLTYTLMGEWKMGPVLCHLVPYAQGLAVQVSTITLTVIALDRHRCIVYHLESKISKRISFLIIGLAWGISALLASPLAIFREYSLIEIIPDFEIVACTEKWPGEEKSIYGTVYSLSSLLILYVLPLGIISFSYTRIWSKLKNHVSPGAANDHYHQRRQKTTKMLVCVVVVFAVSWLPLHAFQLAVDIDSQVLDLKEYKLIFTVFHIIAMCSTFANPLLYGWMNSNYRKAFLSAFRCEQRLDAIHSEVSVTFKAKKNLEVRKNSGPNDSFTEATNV
Description: Binding assays were performed on GF/C Millipore 96-well plates pretreated with 0.02% polyethylenimine. The binding buffer for rat Y2 binding is Krebs-Ringer bicarbonate (pH 7.4) containing 0.01% BSA and 0.005% bacitracin. Samples consist of membrane protein, 25 pM [125I]PYY and drug dilution. Nonspecific binding is defined by 1 μpM NPY.
After a 2 hour incubation at room temperature with constant mixing, the samples are aspirated on a vacuum manifold, and rinsed with ice-cold binding buffer. The amount of radioactivity in each well is quantitated with either gamma counting or liquid scintillation.

Rat NPY5 Receptor = target: T3, Rat NPY5 Receptor (Rattus norvegicus, UniProt Q63634); assay: Rat NPY5 Receptor Binding Assay; settings: [125I]PYY; read-out: rNPY5 IC50
T3 sequence (Q63634 1-445): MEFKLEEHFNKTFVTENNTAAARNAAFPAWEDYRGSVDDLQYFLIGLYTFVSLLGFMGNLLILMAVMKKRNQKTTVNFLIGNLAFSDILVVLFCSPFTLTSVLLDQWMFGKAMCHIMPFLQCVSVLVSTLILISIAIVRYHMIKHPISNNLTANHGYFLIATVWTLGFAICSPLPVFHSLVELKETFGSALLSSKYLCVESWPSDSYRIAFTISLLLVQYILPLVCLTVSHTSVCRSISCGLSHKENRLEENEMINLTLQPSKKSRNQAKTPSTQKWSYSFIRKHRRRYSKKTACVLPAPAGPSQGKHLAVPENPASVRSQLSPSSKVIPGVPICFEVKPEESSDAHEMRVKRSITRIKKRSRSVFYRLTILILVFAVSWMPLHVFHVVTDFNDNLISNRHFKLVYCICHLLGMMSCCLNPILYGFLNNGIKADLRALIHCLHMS

| SMILES | IC50 (Human NPY5 Receptor) [nM] | IC50 (Human NPY2 receptor) [µM] | IC50 (Rat NPY5 Receptor) [nM] |
| --- | --- | --- | --- |
| O=C(CSc1nc2ccccc2s1)Nc1ccc(C(=O)c2ccccc2)cc1 [Compound 47, 2-(Benzothiazol-2-ylsulfanyl)-N-(4-benzoyl-phenyl)-acetamide] | 3800 | > 5 | – |
| Nc1nc(SCC(=O)Nc2ccc(C(=O)c3ccccc3)cc2)c2[nH]cnc2n1 [Compound 68, 2-(2-Amino-7H-purin-ylsulfanyl)-N-(4 benzoyl-phenyl)-acetamide] | 5000 | > 5 | – |
| Nc1nc(SCC(=O)Nc2ccc(C3CCCCC3)cc2)nc2[nH]ncc12 [Compound 59] | > 1000 | > 5 | – |
| O=C(CSc1ccncc1)Nc1ccc(C2CCCCC2)cc1 [Compound 50, N-(-clohexyl-phenyl)-2-(pyridin-4-ylsulfanyl)-acetamide] | 53 | > 5 | – |
| O=C(CSc1ncnc2[nH]ncc12)Nc1ccc(C2CCCCC2)cc1 [Compound 35, N-(4-Cyclohexyl-phenyl)-2-(1H-pyrazolo[3,4-d]pyrimidin-4-ylsulfanyl)-acetamide] | 3600 | > 5 | – |
| O=C(CSc1cccc[n+]1[O-])Nc1ccc(C(=O)c2ccccc2)cc1 [Compound 46, N-(4-Benzoyl-phenyl)-2-(1-oxy-pyridin-2-ylsulfanyl)-acetamide] | 300 | > 5 | – |
| O=C(CSc1ncccn1)Nc1ccc(C2CCCCC2)cc1 [Compound 39, N-(-Cyclohexyl-phenyl)-2-(pyrimidin-2-ylsulfanyl)-acetamide] | 490 | > 5 | – |
| O=C(CSCC(O)CO)Nc1ccc(C2CCCCC2)cc1 (centres unmarked) [Compound 34, N-(4-Cyclohexyl-phenyl)-2-(2,3-dihydroxy-propylsulfanyl)-acetamide] | 144 | > 5 | – |
| O=C(CSc1nnnn1-c1ccccc1)Nc1ccc(C2CCCCC2)cc1 [Compound 52] | 730 | > 5 | – |
| COc1ccc2[nH]c(SCC(=O)Nc3ccc(C(=O)c4ccccc4)cc3)nc2c1 [Compound 20, N-(4-Benzoyl-phenyl)-2-(5-methoxy-1H-benzolmidazol-2-ylsulfanyl)-acetamide] | 420 | > 5 | – |
| O=C(CSc1ccc(O)cc1)Nc1ccc(C(=O)c2ccccc2)cc1 [Compound 65] | 970 | > 5 | – |
| Cc1nnc(SCC(=O)Nc2ccc(C3CCCCC3)cc2)s1 [Compound 91, N-(4-Cyclohexyl-phenyl)-2-(5-methyl [1,3,4]thiadiazol-2-ylsulfanyl)-acetamide] | 80 | – | 84 |
| O=C(CSc1nnc(NC2CCCCC2)s1)Nc1ccc(C(=O)c2ccccc2)cc1 [Compound 123, N-(4-Benzoyl-phenyl)-2-(5-cyclohexylamino [1,3,4]thiadiazol-2-ylsulfanyl)-acetamide] | 420 | – | 530 |
| O=C(CSC1CCCC1)Nc1ccc(C(=O)c2ccccc2)cc1 [Compound 109, N-(4-Benzoyl-phenyl)-2-cyclopentylsulfanyl-acetamide] | 610 | – | 370 |
| CC(Sc1nnnn1C)C(=O)Nc1ccc(C2CCCCC2)cc1 (centres unmarked) [Compound 127, N-(4-Cyclohexyl-phenyl)-2-(1-methyl-1H-tetrazol-5-ylsulfanyl)-propionamide] | 59 | – | 50 |
| O=C(CSc1nnc(-c2ccccc2)o1)Nc1ccc(C2CCCCC2)cc1 [Compound 94, N-(4-Cyclohexyl-phenyl)-2-(5-phenyl-[1,3,4]oxadiazo-2-ylsulfanyl)-acetamide] | 670 | – | 1200 |
| Nc1ccc(SCC(=O)Nc2ccc(C3CCCCC3)cc2)cc1 [Compound 99, 2-(4-Amino-phenylsulfanyl)-N-(4-cyclohexyl-phenyl)-acetamide] | 690 | – | 510 |

| SMILES | IC50 (Human NPY5 Receptor) [nM] | IC50 (Human NPY2 receptor) [µM] | IC50 (Rat NPY5 Receptor) [nM] |
| --- | --- | --- | --- |
| O=C(CSc1nnnn1-c1ccc(O)cc1)Nc1ccc(C(=O)c2ccccc2)cc1 [Compound 87, N-(4-Benzoyl-phenyl)-2-[1-(4-hydroxy-phenyl)-1H-tetrazol-5-ylsulfanyl]-acetamide] | 100 | – | 120 |
| COC(=O)c1cnc(SCC(=O)Nc2ccc(C(=O)c3ccccc3)cc2)n1C [Compound 122, 2-[(4-Benzoyl-phenylcarbamoyl)-methylsulfanyl]-3-methyl-3H-imidazole-4-carboxylic acid methyl ester] | 1500 | – | > 1000 |
| O=C(CSc1nnc(NC2CCCCC2)s1)Nc1ccc(C2CCCCC2)cc1 [Compound 116] | 1300 | – | 2000 |
| Cn1nnnc1SCC(=O)Nc1ccc2c(c1)Cc1ccccc1-2 [Compound 130, N-(9H-Fluoren-2-yl)-2-(1-methyl-1H-tetrazol-5-ylsulfanyl)-acetamide] | 160 | – | 150 |
| Cc1nnc(SCC(=O)Nc2ccc(C(=O)c3ccccc3)cc2)s1 [Compound 86, N-(4-Benzoyl-phenyl)-2-(5-methyl-[1,3,4]thiadiazol-2-ylsulfanyl)-acetamide] | 170 | – | 150 |
| CC(Sc1nnnn1C)C(=O)Nc1ccc(C(C)(C)C)cc1 (centres unmarked) [Compound 125, N-(4-tert-Butyl-phenyl)-2-(1-methyl-1H-tetrazol-5-ylsulfanyl)-propionamide] | 1000 | – | 360 |
| Cn1c(CO)cnc1SCC(=O)Nc1ccc(C(=O)c2ccccc2)cc1 [Compound 121, N-(4-Benzoyl-phenyl)-2-(5-hydroxymethyl-1-methyl-1H-imidazol-2-ylsulfanyl)acetamide] | 910 | – | 2800 |
| COc1ccc(-c2nnc(SCC(=O)Nc3ccc(C(=O)c4ccccc4)cc3)n2-c2cccc(C(F)(F)F)c2)cc1 [Compound 120, N-(4-Benzoyl-phenyl)-2-(5-(4-methoxy-phenyl)-4-(3-trifluoromethyl-phenyl)-4H-[1,2,4]triazol-3-ylsulfanyl]-acetamide] | 1300 | – | 530 |
| Nc1ccccc1SCC(=O)Nc1ccc(C2CCCCC2)cc1 [Compound 97, 2-(2-Amino-phenylsulfanyl)-N-(4-cyclohexyl-phenyl)-acetamide] | 110 | – | 90 |
| Cn1c(CO)cnc1SCC(=O)Nc1ccc(C2CCCCC2)cc1 [Compound 114, N-(4-Cyclohexyl-phenyl)-2-(5-hydroxymethyl-1-methyl-1H-imidazol-2-ylsulfanyl)-acetamide] | 900 | – | 390 |
| Nc1cccc(SCC(=O)Nc2ccc(C(=O)c3ccccc3)cc2)c1 [Compound 102, 2-(3-Amino-phenylsulfanyl)-N-(4-benzoyl-phenyl)-acetamide] | 340 | – | 310 |
| Nc1cccc(SCC(=O)Nc2ccc(C3CCCCC3)cc2)c1 [Compound 98, 2-(3-Amino-phenylsulfanyl)-N-(4-cyclohexyl-phenyl)-acetamide] | 320 | – | 290 |
| O=C(CSCc1cccc(CS)c1)Nc1ccc(C2CCCCC2)cc1 [Compound 96, N-(4-Cyclohexyl-phenyl)-2-(3-mercaptomethyl-benzylsulfanyl)-acetamide] | 850 | – | 610 |
| O=C(CSc1nnc(-c2ccccc2)o1)Nc1ccc(C(=O)c2ccccc2)cc1 [Compound 89, N-(4-Benzoyl-phenyl)-2-(5-phenyl [1,3,4]oxadiazol-2-ylsulfanyl)-acetamide] | 590 | – | 720 |
| O=C(CSc1nc(-c2ccccc2)no1)Nc1ccc(C(=O)c2ccccc2)cc1 [Compound 85, N-(4-Benzoyl-phenyl)-2-(3-phenyl-[1,2,4]oxadiazol-ylsulfanyl)-acetamide] | 200 | – | 220 |
| O=C(CSCc1ccco1)Nc1ccc(C(=O)c2ccccc2)cc1 [Compound 110, N-(4-Benzoyl-phenyl)-2-(furan-2-ylmethylsulfanyl)-acetamide] | 290 | – | 340 |
| O=C(CSc1nnc(-c2ccco2)[nH]1)Nc1ccc(C2CCCCC2)cc1 [Compound 111, N-(4-Cyclohexyl-phenyl)-2-(5-furan-2-yl-4H-[1,2,4]triazol-3-ylsulfanyl)-acetamide] | 1400 | – | 570 |
